Results taken from US6745512B1 (priority 1990, dated 2004).

Tested on: harmful organisms such as smut (Ustilago nuda), Fusaria and Septoria nodorum
Assay: combined use of low energy electrons with subsequent fungicidal treatment of the seeds
Conditions: low energy electrons followed by fungicidal treatment of the seeds; 15 g, 30 g/100 kg seeds

Cc1oc(C)c(C(=O)Nc2ccccc2)c1C [Methfuroxam] was tested, and the harmful organisms combated was 95 to 100%.
